Measured values: patent publication US6649654B1, “Methods for identifying and using IKK inhibitors” (The Regents of the University of California, priority 1999, dated 2003)
“Also recorded” adds a separate entry of the source.

Experiments:
activated monocytes = settings: cited from earlier work
[1] = tested on: inducible nitric oxide synthase (iNOS); settings: activated monocytes; cited from earlier work
wild-type IKKβ = assay: 2XNFκB-LUC reporter in HeLa cells with NIK and wild-type IKKβ; assay type: cell-based; settings: luciferase at 24 hours, FIG. 6E
Protocol: Recombinant IKKβ(C179A) was also resistant to concentrations of 15dPGJ2 that were inhibitory to wild-type IKKβ (as shown in FIG. 6D), and also to PGA1. An NF-κB dependent transcriptional reporter (2XNFκB-LUC) was preincubated with expression vector encoding either wild-type IKKβ or IKKβ(C179A). A NIK expression vector was included to ensure maximal IKK activation. […] FIG. 6E provides the results for HeLa cells transiently transfected with a 2×NF-κB-LUC reporter, a NIK expression vector and expression vectors for wild type IKKβ or IKKβ(C179A). At 3 hours post-transfection, cells were treated with 15dPGJ2 and at 24 hours, the luciferase activities were determined for duplicate samples. In each case, the maximal activity achieved in the absence of inhibitor was given an arbitrary value of 100% and the other values were calculated relative to this one.

IKKβ [2] = molecular target: T1, IKKβ (Homo sapiens, UniProt O14920); assay: Recombinant wild-type IKKβ (Sf9) kinase activity; assay type: biochemical; parameters: FLAG; made in house; host or cells: Sf9 (baculovirus)
T1 sequence (O14920 1-756): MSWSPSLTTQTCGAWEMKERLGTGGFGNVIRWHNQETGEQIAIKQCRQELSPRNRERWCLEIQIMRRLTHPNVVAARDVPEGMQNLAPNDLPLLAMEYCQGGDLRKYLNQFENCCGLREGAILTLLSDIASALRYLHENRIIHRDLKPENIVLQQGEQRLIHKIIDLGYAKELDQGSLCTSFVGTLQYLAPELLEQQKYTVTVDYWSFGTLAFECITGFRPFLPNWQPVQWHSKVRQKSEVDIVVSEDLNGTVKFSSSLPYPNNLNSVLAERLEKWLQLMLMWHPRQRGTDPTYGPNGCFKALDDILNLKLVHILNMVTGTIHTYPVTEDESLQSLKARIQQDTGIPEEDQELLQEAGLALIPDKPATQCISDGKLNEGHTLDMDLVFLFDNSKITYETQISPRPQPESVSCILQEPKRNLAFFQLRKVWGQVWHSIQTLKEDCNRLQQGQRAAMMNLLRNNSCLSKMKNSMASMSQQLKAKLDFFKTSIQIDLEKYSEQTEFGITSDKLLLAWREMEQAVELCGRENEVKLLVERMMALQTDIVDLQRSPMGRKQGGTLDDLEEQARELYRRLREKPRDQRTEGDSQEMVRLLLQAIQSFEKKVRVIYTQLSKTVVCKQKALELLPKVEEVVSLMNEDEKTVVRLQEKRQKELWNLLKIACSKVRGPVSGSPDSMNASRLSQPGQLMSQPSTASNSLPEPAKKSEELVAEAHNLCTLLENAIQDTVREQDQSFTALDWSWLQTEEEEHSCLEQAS
Protocol: In addition, recombinant IKKβ was expressed in Sf9 cells and purified as described (Zandi et al., supra). AA, PGs, LTB4, and T×B2 were added to washed imnmunoprecipitates of recombinant IKKβ in kinase buffer to a final volume of 500 μl. After 1.5 hours at 4° C., the immunoprecipitates were washed and the kinase activity determined. Western blot analysis was also performed as known in the art (See e.g., Rossi et al., supra).
In other experiments, purified recombinant IKKβ immobilized on beads with 15dPGJ2 or diluent were preincubated and extensively rinsed with kinase buffer lacking the inhibitor.

IKKβ [3] = molecular target: T1, IKKβ; assay: HA-tagged IKKβ overexpressed in COS cells: kinase activity and expression; assay type: cell-based
Protocol: Cells used in the experiments described herein were cultured in either RPMI 1640 (Jurkat cells) or DMEM (HeLa and COS cells), supplemented with 10% FBS and antibiotics. Cells were stimulated with either 25 ng/ml TPA, 20 ng/ml recombinant TNFα, or 10 ng/ml interleukin 1β (Sigma). PGA1, 15dPGJ2, T×B2, LTB4, AA and other PGs (Cayman) dissolved in ethanol were used as well, as known in the art (See e.g., Rossi et al., 94:746-750 [1997]). Controls received equal amounts of ethanol. Transfections were performed using Lipofectamine Plus (GIBCO) for HeLa and COS cells and DEAE-dextran (Sigma) for Jurkat cells. Xpress-tagged NIK, Xpress-tagged MEKK1, HA-tagged IKKα, and HA-tagged IKKβ were also used (See e.g., Zandi et al., Science 281:1360-1363 [1998]; and Delhase et al., Science 284:309-313 [1999]). COX2 and cPLA2 expression vectors were obtained from Dr. L. Feng (See also, Hirose et al., J. Am. Soc. Nephrol., 9:408-416 [1998]). PGD synthase was cloned from HT29 colon carcinoma cell line cDNA by PCR and subcloned into a pCDNA3 vector. […]
Cell lysates were incubated with anti-IKKα (Pharmingen), anti-HA (12CA5; Pharmingen), anti-JNK1 (333.8; Pharmingen), or anti-p38 (New England Biolabs) for 2 hours. […] Endogenous IKK, HA-tagged IKKα, endogenous JNK1, and p38 activities were determined with GST-1κBα(1-54), GST-c-Jun(1-79), and GST-ATF2 as substrates.

effect on recombinant wild-type IKKβ (IKKβ [2]; FIG. 6D) | inhibition after extensive washing (reversibility) (IKKβ [2]; recombinant IKKβ on beads pre-incubated with inhibitor, rinsed with kinase buffer) | effect on IKKβ expression (immunoblotting) (IKKβ [3]; COS cells overexpressing HA-tagged IKKβ) | Compound | production of pro-inflammatory cytokines (activated monocytes) | production of inducible nitric oxide synthase (iNOS) [1] | sensitivity of NF-κB transcriptional activity through wild-type IKKβ (wild-type IKKβ) | effect on kinase activity of overexpressed HA-tagged IKKβ (IKKβ [3]; COS cells, PGA1 15 or 30 μM, FIG. 2C)
inhibitory | remained inhibited | – | CCCCC/C=C/C=C1/C(=O)C=C[C@@H]1C/C=C\CCCC(=O)O [15dPGJ2, 15-deoxy-Δ^12-14-PGJ2] | inhibits | inhibits | highly sensitive | –
– | – | did not affect | CCCCC[C@H](O)/C=C/[C@H]1C=CC(=O)C1CCCCCCC(=O)O (stereo partly shown) [PGA1, prostaglandin A1] | – | – | – | strongly inhibited; also recorded: inhibits
